Each substance was assayed on Male NMRI (SPF) mice (assay: iron utilization in mouse model (low-iron diet)). Conditions: iron-deficient male NMRI mice; stomach tube, 2 mg iron/kg body weight/day, days 1-5 and 8-12; utilization on day 15 calculated from hemoglobin and body weight increase.
Assay type: in vivo
Procedure: The excellent Fe utilizations that can be accomplished through the Fe complexes according to the invention were measured by means of the following mouse model. Male NMRI (SPF) mice (approximately 3 weeks old) were fed a low-iron diet (approx. 5 ppm iron) for approximately 3 weeks. The iron complexes were then administered to them by means of a stomach tube (2 mg iron/kg body weight/day) for 2 times 5 days, with an interruption of 2 days (days 1-5 and 8-12). Utilization on day 15 was calculated from the hemoglobin increase and the body weight increase in accordance with the formula […] Control group, utilized from food, (mg Fe)

Substance | Utilization n 15 d (abs. %)
Tris-(4-methyl-6,7-dihydro-5H-cyclopenta[d]pyrimidin-2-ol-1-oxide)-iron(III) complex [Example 10] | 70
Tris-(4-methylpyrimidine-2-ol-oxide)-iron(III) complex [Example 2] | 80
Tris-(6-ethyl-4-methylpyrimidin-2-ol-1-oxide)-iron(III) complex [Example 9] | 69
Tris-(4-ethylpyrimidine-2-ol-1-oxide)-iron(III) complex [Example 8] | 82
Tris-(5-chloro-4,6-dimethylpyrimidine-2-ol-1-oxide)-iron(III) complex [Example 7] | 64
Tris-(pyrimidine-2-ol-1-oxide)-iron(III) complex [Example 1] | 89
Tris-(5,6-dimethylpyrimidine-2-ol 1-oxide)-iron(III) complex [Example 16] | 57
Tris-(4-methyl-5,6,7,8-tetrahydrochinazoline-2-ol-3-oxide)-iron(III) complex [Example 11] | 74
Tris-(4,5,6-trimethylpyrimidine-2-ol-1-oxide)-iron(III) complex [Example 6] | 70
Tris-(4-propane-2-yl)pyrimidine-2-ol-1-oxide)-iron(III) complex [Example 12] | 55
Tris-(4,6-dimethylpyrimidine-2-ol-1-oxide)-iron(III) complex [Example 3] | 74
Tris-(4,6-diethylpyrimidine-2-ol-1-oxide)-iron(III) complex [Example 4] | 76

Source: US9422247B2, “Fe(III) complex compounds for the treatment and prophylaxis of iron deficiency symptoms and iron deficiency anemias” (Vifor (International) AG, priority 2011, dated 2016)
